According to PMC9635468, “Biological evaluation, docking studies, and in silico ADME prediction of some pyrimidine and pyridine derivatives as potential EGFR^WT and EGFR^T790M inhibitors” (Journal of Enzyme Inhibition and Medicinal Chemistry, 2022):
Values after ≈ are worked out from the molar mass of the structure shown. One block for each compound: values may come before it.

Legend:
HEPG2 cells = test: Cell cycle DNA index analysis by flow cytometry; format: cell-based, human; details: HEPG2, 3.8 µg/mL, 48 h; for cells in G2/M phase: control 5.57%; for cells in G0/G1: control 92.7%
HEPG2 cell line = test: Annexin V-FITC apoptosis detection by flow cytometry; format: cell-based, human; details: HEPG2, 3.8 µg/mL, 48 h; control 16.73
Procedure: Furthermore, both compounds 8 and 14 were evaluated for apoptosis using flow cytometry on the HEPG2 cell line. The % rate of total apoptosis for control, compound 8, and compound 14 were 16.73, 22.44, and 48.36 (%), respectively.
Liver cancer cells (HEPG2) were seeded in RPMI-1640 media at a density of 250 X 10^3 cells/mL. Both cell cycle and apoptosis evaluations were performed at 3.8 µg/mL for both compounds 8 and 14. The detailed method is described in the Supplementary data (SI 3).
Annexin V-FITC apoptosis detection kit (Beckman Coulter, California, USA) was used as the manufacturer’s recommendation by using (Beckman Coulter EPICS XL flow cytometer, California, USA). […]
Cell cycle evaluation was performed at 3.8 µg/mL of both compounds […]. After 48 h, the cells were harvested, stained and DNA content was quantified.
The most promising cytotoxic compounds (8 and 14) were further assessed for their inhibitory potential against both EGFR Wild and EGFRT T790M. […] The amount of EGFR required for the assay was calculated and the enzyme was diluted to 1 ng/μL with Kinase assay buffer. […] The plate was incubated at room temperature for 15 minutes and luminescence was measured using the microplate reader.

EGFR (Wild) = EGFR (Wild) (Homo sapiens, UniProt P00533); test: EGFR kinase (wild) inhibition assay, Kinase-Glo MAX
Chain of EGFR (Wild) (P00533 25-1210): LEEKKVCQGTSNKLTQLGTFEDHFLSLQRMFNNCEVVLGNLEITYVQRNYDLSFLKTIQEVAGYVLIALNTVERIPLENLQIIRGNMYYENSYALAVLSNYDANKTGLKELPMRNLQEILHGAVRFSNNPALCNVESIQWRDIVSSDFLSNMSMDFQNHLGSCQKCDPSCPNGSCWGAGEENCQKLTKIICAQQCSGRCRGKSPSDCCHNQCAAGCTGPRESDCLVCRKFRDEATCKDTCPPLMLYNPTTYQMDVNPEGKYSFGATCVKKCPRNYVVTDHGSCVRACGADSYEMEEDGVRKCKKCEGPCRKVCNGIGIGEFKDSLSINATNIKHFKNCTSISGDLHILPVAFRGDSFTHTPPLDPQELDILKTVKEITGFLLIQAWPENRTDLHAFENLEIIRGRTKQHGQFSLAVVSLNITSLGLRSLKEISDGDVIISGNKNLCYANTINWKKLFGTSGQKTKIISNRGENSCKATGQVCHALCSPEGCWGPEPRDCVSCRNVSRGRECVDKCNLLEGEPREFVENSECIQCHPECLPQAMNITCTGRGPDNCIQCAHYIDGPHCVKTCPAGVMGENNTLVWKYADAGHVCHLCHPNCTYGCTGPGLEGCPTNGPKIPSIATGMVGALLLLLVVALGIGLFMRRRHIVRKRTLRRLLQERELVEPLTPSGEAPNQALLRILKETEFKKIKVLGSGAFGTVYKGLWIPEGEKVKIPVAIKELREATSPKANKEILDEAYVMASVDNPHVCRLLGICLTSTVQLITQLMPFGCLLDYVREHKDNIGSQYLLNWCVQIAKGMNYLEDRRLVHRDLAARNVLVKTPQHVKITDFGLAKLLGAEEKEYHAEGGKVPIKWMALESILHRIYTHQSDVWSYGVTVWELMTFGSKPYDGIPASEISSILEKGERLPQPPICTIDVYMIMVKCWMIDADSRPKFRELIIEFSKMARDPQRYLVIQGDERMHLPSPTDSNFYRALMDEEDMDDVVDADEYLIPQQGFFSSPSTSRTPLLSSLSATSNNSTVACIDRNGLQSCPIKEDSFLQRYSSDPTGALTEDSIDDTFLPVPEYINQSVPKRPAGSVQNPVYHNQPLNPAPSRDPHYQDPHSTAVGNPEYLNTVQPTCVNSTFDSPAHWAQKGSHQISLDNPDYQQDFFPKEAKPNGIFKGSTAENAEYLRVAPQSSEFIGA
Procedure: The reagent, Kinase-Glo MAX, was used[50], and luminescence was detected by applying the microplate reader.
The assay protocol was carried out by adding 25 μL of the master mixture: (6 μL Kinase assay buffer + 1 μL ATP (500 μM) + 1 μL PTK substrate + 17 μL water) to each well. Thereafter, 5 μL of the inhibitor solution was added to each well labeled as “test inhibitor”. Meanwhile, for the “positive control" and “blank”, 5 μL of the same solution without inhibitor (inhibitor buffer) was added. To the wells designated as "blank", add 20 μL of Kinase assay buffer. The amount of EGFR required for the assay was calculated and the enzyme was diluted to 1 ng/μL with Kinase assay buffer. The reaction was initiated by adding 20 μL of diluted EGFR enzyme to the wells designated as “positive control” and "test inhibitor control". The wells were incubated at 30°C for 40 minutes, then 50 μL of Kinase-Glo Max reagent was added to each well. The plate was incubated at room temperature for 15 minutes and luminescence was measured using the microplate reader.

HEPG2 = test: Cytotoxicity screening, SRB assay, HEPG2; format: cell-based, human; details: for HEPG2 IC50: 48 h; for IC50: Homo sapiens, HepG2, 48 h
Procedure: (§1) In this study, a panel of cell lines was examined for their chemosensitivity. Different concentrations of the synthesised pyridines and pyrimidine derivatives were used in this study (5, 12.5, 25, and 50 µg/mL) for all the examined cell lines. In this study, breast tumour cell line (MCF7), hepatocellular carcinoma cell line (HEPG2), larynx cell line (HEP2), lung cancer cell line (H460), colon cancer cell line (HCT116 and Caco2), hypopharyngeal cell line (FADU), and normal Vero cell line were applied. The full methodology is described in the Supplementary data (SI 1).
(§2) SI 1: Cytotoxicity screening against human cancer cell lines
(§3) In this study, a panel of cell lines was examined for their chemosensitivity. Different concentrations of the synthesized pyridines and pyrimidines derivatives were used in this study (5, 12.5, 25, and 50 µg/ml) for all the examined cell lines. The most sensitive cell line to the treatment regimen was selected and subjected to further investigations to explore the mechanism of this interaction. Human breast tumor cell line (MCF7), human hepatocellular carcinoma cell line (HEPG2), human larynx cell line (HEP2), human lung cancer cell line (H460), human colon cancer cell line (HCT116 and Caco2), human hypopharyngeal cell line (FaDu), and normal cell line Vero were used in this study. It was obtained from the American Type Culture Collection (ATCC, Minnesota, USA). The tumor cell line was maintained at National Cancer Institute (NCI), Cairo, Egypt.
(§4) The antitumor activities of pyridines and pyrimidines derivatives and all tested cell lines were evaluated by sulphorhodamine-B (SRB) assay 1. Briefly, cells were seeded at a density of 3 × 10^3 cells/well in 96-well microtiter plates. They were left to attach for 24 h before incubation with drugs. Next, cells were treated with different concentrations of 5, 12.5, 25, and 50 µg/ml for MCF7, HEPG2, HEP2, HCT116, Caco2, H460, FaDu, and Vero cells. For each concentration, three wells were used and incubation was continued for 48 h. DMSO was used as a control vehicle (1 % v/v). At the end of incubation, cells were fixed with 20 % trichloroacetic acid and stained with 0.4 % SRB dye. The optical density (O.D.) of each well was measured spectrophotometrically at 570 nm using an ELISA microplate reader (TECAN sunrise™, Germany). The mean survival fraction at each drug concentration was calculated as follows: […]
(§5) O.D. of the treated cells/O.D. of the control cells. The IC50 (concentration that produces 50% of cell growth inhibition) value of each drug was calculated using sigmoidal dose-response curve-fitting models (Graph Pad Prizm software, version 5) 1.

HCT116 = test: Cytotoxicity screening, SRB assay, HCT116; format: cell-based, human; details: for HCT116 IC50: 48 h; for IC50: Homo sapiens, HCT-116, 48 h
Procedure: as §1, §2, §3, §4, §5

IC50 (EGFR (Wild)): 131 ± 8 nM
SMILES: Oc1n[nH]c2nc(-c3ccco3)cc(-c3cccs3)c12 [Compound 8]
cells in G2/M phase (HEPG2 cells): 34.4%
cells in G0/G1 (HEPG2 cells): 61.4%
% rate of total apoptosis (HEPG2 cell line): 22.44%
HEPG2 IC50 (HEPG2): 3.80 µg/mL
IC50 (HEPG2): 4 µg/mL (≈ 14.1 µM)
HCT116 IC50 (HCT116): 7.20 µg/mL
IC50 (HCT116): 4 µg/mL (≈ 14.1 µM)

IC50 (EGFR (Wild)): 203 ± 12 nM
SMILES: N#Cc1c(-c2cccs2)cc(-c2ccco2)[nH]c1=O [Compound 14]
cells in G2/M phase (HEPG2 cells): 25.9%
cells in G0/G1 (HEPG2 cells): 69.8%
% rate of total apoptosis (HEPG2 cell line): 48.36%
HEPG2 IC50 (HEPG2): 3.80 µg/mL
IC50 (HEPG2): 3.6 µg/mL (≈ 13.4 µM)
HCT116 IC50 (HCT116): 3.90 µg/mL
IC50 (HCT116): 7.4 µg/mL (≈ 27.6 µM)
